Laboratory results taken from a melting point compilation (Tetko et al.; mined from patent text by program, amines drawn as free bases though some values may be those of a salt).

| SMILES | melting point [°C] |
| --- | --- |
| O=C(Nc1cc(Br)cc(C(F)(F)F)c1)Oc1ccc([N+](=O)[O-])cc1 | 140 to 142 |
| NC1c2ccccc2-c2[nH]c(=O)c3nccn3c21 (centres undefined) | 240 |
| COc1ccc(NS(=O)(=O)c2ccc([N+](=O)[O-])cc2)cc1 | 173 to 175 |
| O=c1c(CCCc2ccncc2)cc2cccnc2n1-c1cccnc1 | 178 to 180 |
| Cc1cc(C)c(Nc2nc(C)ccc2S(=O)(=O)c2ccc(O)cc2)c(C)c1 | 226 to 228 |
| CC(=O)SCC(Cc1ccc(N(C)C)cc1)C(=O)Nc1cccc(C(=O)O)c1 (centres undefined) | 71 to 73 |
| O=C(N[C@H](Cc1ccc(C(F)(F)F)cc1)[C@@H](O)c1cccc2ccccc12)c1ccc(F)c2ccccc12 (racemic) | 195 to 196 |
| CCCCC=Cc1cc2ccccc2[nH]1 | 70 to 72 |
| CCn1cc(C(=O)O)c(=O)c2cc(Cl)c(N3CCNCC3)cc21 | 228 to 232 |
| FC(F)(F)c1ccc(-c2ccnc(Oc3ccc4cccnc4c3)c2)cc1 | 156 to 158 |
| CCOc1ccnc2[nH]ccc12 | 176 to 178 |
| O=c1[nH]c2ccc(S(=O)CCN3CCC(Cc4ccc(Cl)cc4)CC3)cc2o1 (centres undefined) | 213 to 214 |
| O=c1[nH]c(Cc2cccc(O)c2)cc2ccccc12 | 225 to 227 |
| O=C(c1cc(-c2ccccc2)c(=O)n2c1-c1ccccc1CN2)N1CCOCC1 | 254 to 257 |
| Cc1cc2cc(CN3CCCC3)cnc2cc1NC(=O)c1ccc(-c2ccc(C(F)(F)F)cc2)cc1 | 216 to 219 |
| CN(C)CC(c1ccc(OCc2ccccc2)cc1)C1(O)CCCCC1 (centres undefined) | 140 to 142 |
| CC(=O)Oc1c(C(C)(C)C)cc2occc2c1C(C)(C)C | 87.7 |
| O=C1OCCN1c1ccc(NCC(O)CO)c([N+](=O)[O-])c1 (centres undefined) | 150 |
| C=CCn1c(=O)n(CCCN2CCC3(CC2)C(=O)NCN3c2ccccc2)c2ccccc21 | 198 |
| Fc1cccc(OC2CN(C(c3ccccc3)c3ccccc3)C2)c1 | 81 to 82 |
| c1ccc(-c2cccc(-n3cnc4cccnc43)c2)cc1 | 89 to 91 |
| CCCc1nc(C)n2ncnc2c1Cc1ccc(-c2ccccc2C#N)cc1 | 112 |
| CS(=O)(=O)c1ccc(-c2cc(C(F)(F)F)nn2-c2ccc(C#N)cc2)cc1 | 140 to 142 |
| Cc1ccc(Cc2c[nH]c(NCCSCc3ccco3)nc2=O)cn1 | 147 to 152 |

| SMILES | melting point [°C] |
| --- | --- |
| CCOC(=O)C(C)(C)c1ccc(C(O)CCCN2CCC(=C3c4ccccc4CCc4ccccc43)CC2)cc1 (centres undefined) | 142 to 144 |
| Cc1[nH]n(C2CCCC2O)c2nc(-c3ccncc3)nc(=O)c1-2 (centres undefined) | 281 to 283 |
| COc1ccc(COc2ccc3c(c2)C(c2ccc(C(C)C)cc2)C(C)(C)O3)cc1 (centres undefined) | 124 to 126 |
| CNc1nc(-c2cccc(N)c2)c2cc(OC)c(OC)cc2n1 | 197 to 199 |
| Cc1cccc(N2CCN(c3ccc(OCc4ccccc4)nn3)CC2)c1 | 159 |
| CCCOc1ccccc1C1=NC(=O)C2=NC(SC)=NC2=N1 | 245 to 247 |
| CN(C)CCOc1ccc(-c2nnc(CSCCOc3ccccc3)o2)cc1 | 62 to 64 |
| COC(=O)c1cnc(NC(C)C)nc1C | 118 to 119 |
| Cc1ccccc1NC(=O)CN1CCN(c2ncccc2C#N)CC1 | 123 to 125 |
| CN1CCC(NC(=O)c2cccc3oc(-c4ccccc4)nc23)CC1 | 126 to 128 |
| CSc1nc2[nH]c3c(c(=O)n2n1)SCCC3 | 314 to 318 |
| CCOC(=O)c1cnc2c(c(C)nc3cc(C)nn32)c1N1CCCCC1 | 161 to 163 |
| COc1ccc(-c2c(Cl)c(CN3C(=O)CCC3=O)nc3sc4c(c23)CC(C)(C)C(=O)C4)cc1 | 222 to 224 |
| CC(C)(C)c1ccc2c(c1)C(=O)CC2 | 94 to 96 |
| C/C(=C(\C#N)C(N)=S)N1CCCN(c2ccc(Br)cc2)CC1 | 152 to 155 |
| CCCCCCCCCCCCC#CC#CCn1c2ccccc2c2ccccc21 | 53 to 58 |
| O=C(NC[C@H]1CN(c2ccc3c(c2)CCCc2cnn(C(=O)c4ccccc4)c2-3)C(=O)O1)c1ccccc1 | 75 to 95 |
| Cc1ccccc1-c1cc2cnc(N)nc2nc1N | 300 to 302 |
| CC(C)CCCC(C)C1CCC2C3CC=C4CC(OCCI)CCC4(C)C3CCC12C (centres undefined) | 86 to 88 |
| CN1CCN(C2=Nc3cc(F)ccc3Nc3nn(C)nc32)CC1 | 195 to 197 |
| CN1CC(c2ccccc2)c2ccccc2C(c2ccccc2)C1(C)C (centres undefined) | 137 to 138 |
| CN1CCN(c2ccc([N+](=O)[O-])c(C(=O)O)c2)CC1 | 212 |
| Nc1nc(N)nc(CNc2c(Br)cc(Br)cc2Br)n1 | 250 to 251 |
| C=C(C=O)c1ccc(C)cc1[N+](=O)[O-] | 58.5 to 60 |

Continued, values first:

| melting point [°C] | SMILES |
| --- | --- |
| 63 to 63.5 | CC(C)[Si](Oc1ccc2c(c1)CCC2=O)(C(C)C)C(C)C |
| 93 to 95 | CCc1cccc(CC(=O)O)c1OCCCc1cn(-c2ncc(Cl)cc2Cl)nc1C(C)C |
| 223 to 225 | COC(=O)c1c(N)c(-c2ccc(I)cc2)nc2ccc(F)cc12 |
| 230 to 233 | CCc1cn(C)c2cc(-c3ccccc3Cl)c3c(c12)C(=O)NC3=O |
| > 270 | Cc1cc(C(=N)N)ccc1N1CCN(c2ccc(CCC(=O)O)cc2)C1=O |
| 115 to 116 | Cc1nc2c(OCc3ccccc3)nccc2n1C |
| 164 to 165 | CCCCNS(=O)(=O)NC(=O)OCc1ccc(OCCOC)cc1Oc1ncc(C(F)(F)F)cc1Cl |
| 142 to 143 | CCOC(=O)Cc1ccc(NC(=O)C(COS(C)(=O)=O)NS(=O)(=O)c2ccc(Cl)cc2)cc1 (racemic) |
| 182 to 183 | COc1ccc(C(=O)Nc2cc(NC(=O)c3cccc(O)c3)ccc2C)cc1OC |
| 133 to 135 | COc1ccc(CCOC(c2ccccc2)(c2ccccc2)C(O)C(=O)O)cc1OC (centres undefined) |
| 180 | Clc1cccc(Nn2cnc3c2CCCC3)c1 |
| 87 to 89 | Cc1cc(C)cc(C(=O)N2CCN(C(=O)CNC3CCN(Cc4ccc(-c5ccccc5)cc4)CC3)C(c3ccc(Cl)c(Cl)c3)C2)c1 (racemic) |
| 148 to 150 | CN1CC(=Cc2ccccc2Cl)C(=O)C(=Cc2ccccc2Cl)C1 |
| 80 to 81 | Cn1nc(-c2cc(F)c([N+](=O)[O-])cc2F)cc1C(F)(F)F |
| > 270 | Cc1cc(CO)c(C(=O)O)c(S)n1 |
| 130 to 131 | CCOC(=O)C(C(=O)c1ccc(OC)cc1)N(N)c1ccccn1 (centres undefined) |
| 140 | COCCOc1ccc(CCNC(=O)/C=C/c2cccs2)cc1S(N)(=O)=O |
| 115 to 119 | CN(Cc1cc2c(=O)c(C(=O)NCc3ccc(Cl)cc3)cn(C)c2o1)CC(O)c1ccc(-c2ccccc2)o1 (centres undefined) |
| 170 to 171 | CC(C)Oc1cc(/C=C/C(=O)O)n(Cc2ccc(Cl)cc2Cl)n1 |
| 168 to 170 | CCOc1cc2ncc(C#N)c(Nc3ccccc3)c2cc1OCC |
| 130 to 131 | O=S(=O)(c1ccc(Cl)cc1)C(c1cccnc1)c1cc(F)ccc1F (centres undefined) |
| 170 | CC(O)c1cccc(NC(=O)NCC(=O)N(c2ccccc2)C(C)C(=O)N2CCCc3ccccc32)c1 (mixture of isomers) |
| 305 | Cc1nc(NC(=O)c2cnn3c(C(F)(F)F)cc(-c4ccc(Cl)cc4)nc23)sc1S(N)(=O)=O |
| 207 to 209 | O=C/C=C/c1cc2cc(Cl)ccc2[nH]1 |
| 150 to 152 | CCOC(=O)Cc1ccnc2c(NC(=O)c3c(Cl)cccc3Cl)cccc12 |
| 240 to 242 | Cc1nc(-n2ccc(O)cc2=O)sc1C(=O)NCC1CC1 |

| melting point [°C] | SMILES |
| --- | --- |
| 181 to 183 | CC(C)(C1CCCCC1)C(NC(=O)c1ccc(Cl)cc1)NC(=NC#N)Nc1cccnc1 (centres undefined) |
| 198 to 200 | O=c1c(Cc2ccncc2)c(-c2ccc(Cl)cc2)[nH]c2c(Br)cc(Br)cc12 |
| 164 to 166 | CC(=O)n1c(C(=O)O)cc2cc3c(cc21)OCO3 |
| 262 | CCOC(=O)C1=C(N)NC2=C(C(=O)CCC2)C1c1cccc(C#N)c1 (centres undefined) |
| 77 to 80 | CCCCOc1cc(=O)n(C)c2ccccc12 |
| 192 to 193 | COC(=O)C1(NC(=O)Cc2cc(Br)c(F)cc2C)CCN(OC)CC1 |
| 60 to 67 | CCOC(=O)C(=CNc1cc(C)nn1CC)C(=O)OCC |
| 178 to 179 | CCNC(=O)N(C)c1c(C)cc(C(O)(C(F)(F)F)C(F)(F)F)cc1C |
| 218 to 223 | Cc1ccc2c(c1Cl)S(=O)(=O)N=CN2C1CC1 |
| 88 to 90 | O=C(O)c1cc(=O)c2c(OCC(O)COc3ccccc3)cccc2o1 (centres undefined) |
| 140 to 141 | CCOc1nn(Cc2ccc(OCc3ccc4ccccc4n3)cc2)cc1CCC(=O)O |
| 78 to 79 | COC(=O)C(Cc1ccc(OCCN(C)c2nc3ccccc3o2)cc1)Sc1ccccc1 (centres undefined) |
| 83 to 84 | CC(=O)c1ccc(OCCCBr)c(Br)c1 |
| 152 to 153 | CCCC(=O)Nc1c(C)c2c(c(C(C)c3ccc(C(C)C)cc3)c1C)OCC2 (centres undefined) |
| 152 to 153 | NCCNc1nc(N)nc(-c2cc(Cl)ccc2Cl)n1 |
| 148 to 149 | CCOC(=O)c1cn(Cc2cccnc2)nc1O |
| 115 to 117 | CC(C)(N)COc1ccc(O)c(C(N)=O)c1 |
| 144 to 146 | O=C1NC(=O)C(Cc2ccc3cc(OCc4ccccc4)ccc3n2)S1 (centres undefined) |
| 200 to 202 | COCOc1ccc2cc(C3CCN(C)CC3)[nH]c(=O)c2c1 |
| 66 | CCC(=O)Nc1nc(N[C@H]2c3cc(C)ccc3C[C@@H]2C)nc(C(F)F)n1 |
| 157 | COC(=O)c1ccc(C(=N)NC(=O)OC(C)(C)C)cc1 |
| 255 to 257 | O=C(O)c1cccc(-c2ccc(Cl)c(C(=O)NCC34CC5CC(CC(C5)C3)C4)c2)c1 |
| 68 | CCOC(=O)c1ccc(Oc2ccc(F)cc2)nc1 |
| 185 to 187 | CC(C)CC(NC(=O)c1ccc(CBr)cc1)C(=O)NC(C)(C)C#N (centres undefined) |
| 137 to 138 | COc1cc(N)c(Cl)cc1C(=O)NCC1CCN(CCCCCCC(=O)c2ccc(Cl)cc2)CC1 |
